Laboratory results reported in patent US6733982B1, “Method for screening compounds for alpha1B adrenergic receptor antagonist and analgesic activity” (Syntex (U.S.A.) LLC, priority 1999, dated 2004).

Experiments:
[1] = tested on: neuropathic rats (chronic constriction injury); experiment: Cold allodynia response (cold bath assay) in neuropathic (chronic constriction injury) rats; format: in vivo, rat
Procedure: This experiment was conducted to evaluate the effects of 4-(2-benzofuran-7-yl-5-oxo-oxazol-4-ylidenemethyl)-N-phenyl-piperazine-1-carboxamidine hydrochloride, and similar or related compounds, on the cold allodynia response in neuropathic rats. The test apparatus and methods of behavioral testing is described in Gogas et al. (1997) Analgesia 3:111-118.
Male Sprague-Dawley rats (Harlan), 160-200 g, were surgically prepared to have a chronic constriction injury (CCl) as described above 6 days prior to testing. Rats were selected for the study according to the following criteria: 1) the average of two trials was less than or equal to 13 sec; and 2) there was consistency across the two trial scores. Animals were screened for hypersensitivy to cold on post-surgery days 4 through 10, and selected for inclusion in dose-response studies based on the criteria described above. The pre-dose screening values were used as the animals' baseline cold allodynia scores.
Selected rats were tested twice in the cold bath assay described above for a pre-dose baseline and randomly assigned to treatment groups and dosed at 0 (vehicle, 10 ml/kg, 0.5% CMC, 30, 100 or 300 μg/kg, i.p. After 1 hour and 3 hours post-dosing, rats were tested in the cold bath assay. For each rat, the assay was run once at 1 and 3 hours post-dose. The time to raise the rear leg was recorded in each trial. The maximal observing time in each trial was 20 seconds.
Male Sprague-Dawley rats (Harlan), 160-270 g, were surgically prepared to have a chronic constriction injury (CCl) as described above 5 days prior to testing. Rats were selected and tested as described in Example 3. Selected rats were dosed at 0 (vehicle, 10 mL/kg, deionized water), 30 or 300 μg/kg, i.p. After 20 min and 40 minutes post-dosing, rats were tested in the cold bath assay.
Male Sprague-Dawley rats (Harlan), 170-270 g, were surgically prepared to have a chronic constriction injury (CCl) as described above 14 days prior to testing. Rats were selected and tested as described in Example 3. Selected rats were dosed at 0 (vehicle, 10 mL/kg, deionized water), 30 or 300 μg/kg, i.p. After 20 min and 40 minutes post-dosing, rats were tested in the cold bath assay.
(§1) Heat and cold allodynia responses can be evaluated as described below in rats having a chronic constriction injury (CCl). A unilateral mononeuropathy is produced in rats using the chronic constriction injury model described in Bennett et al. (1988) Pain 33:87-107.
(§2) CCl is produced in anesthetized rats as follows. The lateral aspect of each rat's hind limb is shaved and scrubbed with Nolvasan. Using aseptic techniques, an incision is made on the lateral aspect of the hind limb at the mid-thigh level. The biceps femoris is bluntly dissected to expose the sciatic nerve. On the right hind limb of each rat, four loosely tied ligatures (for example, Chromic gut 4.0; Ethicon, Johnson and Johnson, Somerville, N.J.) are made around the sciatic nerve approximately 1-2 mm apart. On the left side of each rat, an identical dissection is performed except that the sciatic nerve is not ligated (sham). The muscle is closed with a continuous suture pattern with, e.g., 4-0 Vicryl (Johnson and Johnson, Somerville, N.J.) and the overlying skin is closed with wound clips. The rats are ear-tagged for identification purposes and returned to animal housing.

[2] = tested on: neuropathic rats (chronic constriction injury); experiment: Pain response to radiant heat in neuropathic (chronic constriction injury) rats; format: in vivo, rat; details: CCI rats
Procedure: Male Sprague-Dawley rats (Harlan), 240-300 g, were surgically prepared to have a chronic constriction injury (CCl) as described above 13-15 days prior to testing. Rats were selected for the study according to the following criteria: ligated leg (LL)latency−4 to 14 seconds; sham leg (LS) latency−6 to 18 seconds; difference (LDiff=LL−LS)−greater than 1.5 seconds. Selected rats were randomly assigned to treatment groups and dosed at 0 (vehicle, 10 ml/kg, 0.5% CMC, 30, 60, 100 or 300 μg/kg, i.p. After 45 minutes post-dosing, rats were placed under inverted plastic cages on an elevated glass platform. Following 15 minutes of acclimatization, a radiant heat source, e.g., light was placed below the glass and illuminated in order for the glass to reach a temperature of 80-82° F. For each rat, four trials of each of the following were performed: shone light on the left hind paw (sham) and recorded the latency when the paw was withdrawn; shone light on the right hind paw (ligated) and recorded the latency when the paw was withdrawn. Five minute intervals were allowed between trials. Hind paws were examined for redness and blistering after each test.
Male Sprague-Dawley rats (Harlan), 240-300 g, were surgically prepared to have a CCl as described above 19-21 days prior to testing. Rats were selected for the study according to the following described in Example 2. Selected rats were randomly assigned to treatment groups and dosed with 4-(2-naphthalen-1-yl-5-oxo-oxazol-4-ylidenemethyl)-N-phenyl-piperazine-1-carboxamidine at 0 (vehicle, 10 mL/kg deionized water, 30, 60, 100, 300 or 1000 μg/kg, i.p. After 1 hour post-dosing, rats were tested as described in Example 2.
as §1, §2

[3] = biological target: T1, alpha1B adrenergic receptor (Homo sapiens, UniProt P35368); experiment: [3H]prazosin radioligand binding on membranes of alpha1 adrenergic receptor transfected CHO-K1 cells; details: methods of Example 1: alpha1A, alpha1B and alpha1D transfected CHO-K1 cells
T1 construct: expressed in transfected cells; host or cells: CHO-K1
T1 sequence (P35368 1-520): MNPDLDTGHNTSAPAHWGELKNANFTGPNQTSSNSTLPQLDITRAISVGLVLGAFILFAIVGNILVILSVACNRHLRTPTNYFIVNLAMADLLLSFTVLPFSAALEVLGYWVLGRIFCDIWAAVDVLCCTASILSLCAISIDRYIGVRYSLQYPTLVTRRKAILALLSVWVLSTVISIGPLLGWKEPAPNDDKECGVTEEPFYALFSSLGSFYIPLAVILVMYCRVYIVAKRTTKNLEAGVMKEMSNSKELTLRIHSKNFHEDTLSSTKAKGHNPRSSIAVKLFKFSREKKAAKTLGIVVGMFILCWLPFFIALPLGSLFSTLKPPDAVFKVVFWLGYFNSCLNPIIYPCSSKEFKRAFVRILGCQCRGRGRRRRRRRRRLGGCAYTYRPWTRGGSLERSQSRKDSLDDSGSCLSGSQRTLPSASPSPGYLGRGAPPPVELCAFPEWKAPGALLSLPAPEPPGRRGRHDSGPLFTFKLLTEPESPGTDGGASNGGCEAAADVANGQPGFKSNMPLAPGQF
Procedure: Alpha1A, alpha1B and Alpha1D adrenergic receptor transfected CHO-K1 cells, prepared using the methods described in Chang et al. (1998) FEBS Lett. 422:279-283, were grown to confluence in T-162 tissue culture flasks in Ham's F-12 culture medium supplemented with 10% fetal bovine serum, geneticin (150 μg/ml) and streptomycin: penicillin (30 μg/ml:30 μg/ml) at 37° C. in 7% CO2. Cells were harvested by incubating with phosphate-buffered saline (PBS) containing 30 μM EDTA for 5-10 min at 37° C. Cells were pelleted by centrifuging at 500×g for 5 min, the pelleted cells were homogenized (Polytron homogenizer) in 10 vols (w/v) of 50 mM Tris, 1 mM EDTA, (homogenisation buffer, pH 7.4 at 4° C.). The homogenate was centrifuged at 45,000×g for 20 min. […]
The membranes were thawed at room temperature and diluted in assay buffer (50 mM Tris, pH 7.4) at 37° C. and homogenized using the Polytron tissue disrupter. […] Scintillation cocktail was added to the filter plates and bound radioligand determined by liquid scintillation spectrophotometry.
For each experiment, total binding (in the absence of any test or reference compounds) and non specific binding (10 μM phentolamine) were determined. […] If the radioligand KD was known, the inhibition dissociation constant (Ki) of each ligand was determined according to the method of Cheng et al. (1973) Biochem. Pharmacol. 22:3099-3108).

[4] = 300 μg/kg i.p., 40 min post-dose
[5] = 60 μg/kg i.p., about 1 hour post-dosing
[6] = 100 μg/kg i.p., about 1 hour post-dosing
[7] = 300 μg/kg i.p., about 1 hour post-dosing
[8] = 100 μg/kg i.p., 1 hour post-dose, p<0.01
[9] = 300 μg/kg i.p., 1 hour post-dose, p<0.01
[10] = 300 μg/kg i.p., 3 hours post-dose, p<0.05

| Compound | cold allodynia: change in latency from pre-dose compared to vehicle group [1, 4] | cold allodynia: latency times compared to vehicle control [1, 4] | cold allodynia: change in latency from pre-dose compared to vehicle group ([1]; 30 μg/kg i.p., 20 min post-dose) | cold allodynia: change in latency from pre-dose compared to vehicle group ([1]; 300 μg/kg i.p., 20 min post-dose) | cold allodynia: latency times compared to pre-dose [1, 4] | cold allodynia: latency times compared to pre-dose ([1]; 20 min post-dose, i.p. (doses tested 30 or 300 μg/kg; dose not given)) | effect in the radiant heat assay (paw withdrawal latency) [2, 5] | effect in the radiant heat assay (paw withdrawal latency) [2, 6] | effect in the radiant heat assay (paw withdrawal latency) [2, 7] | effect in the radiant heat assay (paw withdrawal latency) ([2]; 1000 μg/kg i.p., 1 hour post-dosing) | identification as selective alpha1B adrenergic receptor antagonist [3] | cold allodynia: actual latency times compared to vehicle [1, 8] | cold allodynia: changes from pre-dose compared to vehicle [1, 8] | cold allodynia: actual latency times compared to vehicle [1, 9] | cold allodynia: changes from pre-dose compared to vehicle [1, 9] | cold allodynia: actual latency times compared to vehicle [1, 10] | cold allodynia: changes from pre-dose compared to vehicle [1, 10] |
| --- | --- | --- | --- | --- | --- | --- | --- | --- | --- | --- | --- | --- | --- | --- | --- | --- | --- |
| Cc1c[nH]c(=O)n(CCCN2CCN(c3ccccc3OCC(F)(F)F)CC2)c1=O [3-(3-{4-[2-(2,2,2-trifluoroethoxy)phenyl]-piperazin-1-yl}propyl)-5-methyl-2,4(1H,3H)-pyrimidinedione, reference compound] | significant changes | significant increase in latency times | – | – | – | – | – | – | – | – | – | – | – | – | – | – | – |
| N=C(Nc1ccccc1)N1CCN(C=C2N=C(c3cccc4ccccc34)OC2=O)CC1 [4-(2-naphthalen-1-yl-5-oxo-oxazol-4-ylidenemethyl)-N-phenyl-piperazine-1-carboxamidine] | significant change from pre-dose | – | significant increase in latency from pre-dose | significant increase in latency from pre-dose | significant increase in latency | significant change in latency times | significant effect | significant effect | significant effect | significant effect | identified as a selective alpha1B adrenergic receptor antagonist | – | – | – | – | – | – |
| Cl.N=C(Nc1ccccc1)N1CCN(C=C2N=C(c3cccc4ccoc34)OC2=O)CC1 [4-(2-benzofuran-7-yl-5-oxo-oxazol-4-ylidenemethyl)-N-phenyl-piperazine-1-carboxamidine hydrochloride] | – | – | – | – | – | – | significant effect | significant effect | significant effect | – | identified as selective alpha1B adrenergic receptor antagonists | significantly higher than vehicle | significantly higher than vehicle | significantly higher than vehicle | significantly higher than vehicle | significantly higher than vehicle | significantly higher than vehicle |
